Assay: gradient 5% acetonitrile 3 min, to 50% in 2 min, to 85% in 15 min, held 3 min, 100 µL/min
Conditions: column: Zorbax Extend-C18 2.1 x 50 mm; eluents: water / acetonitrile, 0.1% formic acid
In short: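 Retention time was recorded from adduct peaks, which were picked computationally and each inspected manually. Pure standards ran in mixtures of ~100 molecules on HPLC coupled to a quadrupole time-of-flight mass spectrometer, in positive and negative ionization mode, through a Zorbax Extend-C18 column (2.1 × 50 mm, 1.8 μm) at 100 μL/min. Eluents were water and acetonitrile, each with 0.1% formic acid.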

Compound | RP-LC retention time [s]
CCOC(=O)c1cn(-c2c(F)c(F)c(C#N)c(F)c2F)c2c(F)c(F)c(F)cc2c1=O | 981
O=C(Nc1nccs1)c1cccc(NS(=O)(=O)c2ccc(F)cc2)c1 | 751
Cn1cc(S(=O)(=O)N2CCC(C(=O)N3CCOCC3)CC2)cc1C(=O)N1CCCC1 | 626
COc1ccc(-c2cn3c(CC(=O)Nc4ccc(Br)cc4F)csc3n2)cc1OC | 821
CCCN1C(=O)c2cc(S(=O)(=O)Nc3ccc(OC)cc3)ccc2Oc2cccnc21 | 1030
COc1ccc(N2CCN(S(=O)(=O)c3cc(-c4cc(C(F)(F)F)on4)cs3)CC2)cc1 | 1190
CCN1CCC(N2CCC3(CC2)NCCc2c3[nH]c3ccc(OC)cc23)CC1 | 517
CCOC(=O)Cc1cc(=O)c2cc(C)ccc2[nH]1 | 695
CCN1C(=O)c2cc(S(=O)(=O)NCc3ccc(F)cc3)ccc2Oc2cccnc21 | 1060
CCOC(=O)C1CCN(C(=O)C2CCc3nc(N(CC)CC)ncc3C2)CC1 (stereo not drawn) | 630
COc1ccc(OC)c(-c2cn3ccn(-c4ccc(Cl)cc4)c(=O)c3n2)c1 | 887
CCCNc1nc(-c2cccc(Br)c2)cs1 | 1030
CN1CCN(c2cc(C(=O)O)c3cc(NS(=O)(=O)c4ccc(Cl)c(Cl)c4)ccc3n2)CC1 | 644
C=CCN(CC=C)S(=O)(=O)c1ccc2nc(NC(=O)Cc3cccs3)sc2c1 | 936
COc1cc(Nc2ncc3c(n2)-c2ccc(Cl)cc2C(c2c(F)cccc2OC)=NC3)ccc1C(=O)O | 919
O=c1c2cc3c(cc2nc(SCc2nc(-c4ccc(F)cc4)no2)n1-c1ccc(F)cc1)OCO3 | 1170
CC(C)C(=O)Nc1ccc(C2(C(=O)O)CCC2)cc1 | 720
Cc1cc(N2CCN(C(=O)c3ccc(F)cc3Cl)CC2)nc(N2CCOCC2)n1 | 637
Cc1nc2cc(-c3noc(COc4ccc(Cl)cc4C)n3)ccc2o1 | 1180

Compound | RP-LC retention time [s]
CCNS(=O)(=O)c1cccnc1Nc1cccc(C)c1 | 998
Cc1nn(C(C)C(=O)NCCc2c[nH]c3ccccc23)c(=O)c2c(C)n(-c3ccccc3)nc12 (stereo not drawn) | 904
CCC1(O)CCOC2(CCN(C(=O)C3CCCCCC3)CC2)C1 (stereo not drawn) | 823
CCCc1ccc(S(=O)(=O)N2CCC3(CC2)NCCN=C3NCc2ccc(OC)cc2)cc1 | 826
Cc1noc(-c2ccnc(-n3cnc(C(=O)NCc4cccc(Cl)c4)c3)c2)n1 | 760
CCCCn1cc(S(=O)(=O)Nc2ccc(F)cc2Cl)c2cccnc21 | 862
COc1ccc2c(=O)cc(-c3cccnc3)oc2c1OC | 763
CCc1ccc(N2C(=O)CN(S(C)(=O)=O)CC2(C)C(=O)NCc2ccc(F)cc2)cc1 (stereo not drawn) | 834
CCN(CC)C(=O)c1ccc2c(c1)N(CC(=O)Nc1ccc3c(c1)OCO3)C(=O)C1CCCCN21 (stereo not drawn) | 808
NS(=O)(=O)c1ccc(CCNCc2ccc(-c3cc(Cl)ccc3Cl)o2)cc1 | 712
COc1cc(CN2C[C@@H]3C(=O)N(C)C(=O)[C@@H]3C2)cc(OC)c1 | 585
CCCn1cc(S(=O)(=O)Nc2cccc(F)c2C)c2cccnc21 | 861
O=C(Cn1cnc2cc3c(cc21)OCCO3)Nc1ccc2c(c1)OCCCO2 | 622
CCCN1CCN(CCCNC(=O)CCCn2c(=O)c3cccn3c3ccc(F)cc32)CC1 | 584
O=C(NCCn1c(=O)n(Cc2ccc(F)cc2)c2cccnc21)c1ccco1 | 719
Fc1ccc(-c2ccc(CNCCCn3ccnc3)o2)cc1Cl | 585
COc1ccc(C)cc1NS(=O)(=O)c1ccc2c(c1)C(=O)N(C)c1ncccc1O2 | 933
CC(=O)N1c2ccc(S(=O)(=O)N3CCCCC3)cc2CC1C(=O)Nc1cc(C)ccc1C (stereo not drawn) | 912
COc1ccc(C(=O)Nc2nc(-c3ccc4c(c3)N(C)C(=O)CO4)c(C)s2)cc1OC | 906

The remaining lines, values ahead:

RP-LC retention time [s] | Compound
842 | Cc1cccc(CN2CCCn3nc(C(=O)NCCCOC(C)C)cc3C2=O)c1
653 | Cc1nnc(C2CCCN(C(=O)COc3ccccc3)C2)s1 (stereo not drawn)
852 | COc1cc(NC(=O)N2CCC(c3cnn(-c4ccccc4)c3)CC2)cc(OC)c1OC
726 | Cn1nc(C(=O)N2CCOCC2)c2c1CCN(C(=O)Nc1cccc(Br)c1)C2
714 | COCc1c(C(=O)O)nnn1Cc1ccccc1C
826 | Cc1ccc(NC(=O)Cn2nc3nc(N4CCCC(C)C4)ccn3c2=O)cc1C (stereo not drawn)
884 | CN(Cc1ccccc1)C(=O)c1cc2c(=O)oc3ccccc3c2n1C
810 | COc1ccc2nc(NC(=O)Cc3csc4nc(-c5ccccc5)cn34)sc2c1
571 | CS(=O)(=O)N1C[C@H]2CCN(Cc3c(F)cccc3Cl)C[C@H]21
899 | O=C(NCc1cccs1)C1CCCN(c2nc3ccsc3c(=O)n2Cc2ccc(F)cc2)C1 (stereo not drawn)
807 | COc1cc(Cl)ccc1C(=O)NC1CCN(c2cc(-c3ccc(F)cc3)[nH]n2)C1 (stereo not drawn)
1010 | CCn1cc(-c2ccc(Cl)cc2)cc1C(=O)NCC1CCCO1 (stereo not drawn)
759 | O=C(NCc1ccc(F)cc1)C1CCCN(c2ncnc3c2nc2n3CCCCC2)C1 (stereo not drawn)
649 | CCCn1cnc2cc(CNC(=O)CCC3CCCC3)ccc21
937 | COc1ccc(-c2noc(C3CCCN3C(=O)c3cccc(OC)c3)n2)cc1 (stereo not drawn)
588 | CN(C)c1ccc2c(c1)CN(C(=O)c1cc(C3CC3)[nH]n1)CCO2
779 | CC1(C(=O)NCc2ccccc2)CN(S(C)(=O)=O)CC(=O)N1Cc1ccc(F)cc1 (stereo not drawn)
708 | Cc1ccccc1NC(=O)NCCc1nc2cccnc2n1C1CCCC1
689 | CCNC(=O)C1CCCN(C(=O)Nc2ccc(NC(=O)Nc3ccccc3F)cc2)C1 (stereo not drawn)
800 | COC1CCC12CCN(C(=O)c1ccc(Cc3c(C)noc3C)o1)CC2 (stereo not drawn)
806 | CCC(C(=O)c1ccccc1)n1c(N2CCOCC2)nc2c1c(=O)n(C)c(=O)n2C (stereo not drawn)
782 | O=C(Cn1cccn1)N1CCN(c2cccc(Cl)c2Cl)CC1
783 | C=CCc1cccc(/C=N/NC(=O)C[NH+]2CCN(Cc3ccccc3)CC2)c1[O-]
773 | CCc1nc2c(NC(=O)c3ccccc3Br)cccn2n1
934 | O=C(CN1CN(c2ccccc2)c2ncccc2S1(=O)=O)Nc1ccccc1Cl

RP-LC retention time [s] | Compound
1150 | Cc1cc(OCC(=O)N2CCC(C)CC2)nc(-c2ccc(Cl)cc2)n1
770 | O=C(CNC(=O)Cc1ccc(Cl)cc1)NCC(=O)N1CCCc2ccccc21
897 | CC1CC(=O)N(Cc2c(F)cccc2Cl)c2ccccc2N1 (stereo not drawn)
605 | CCCN1CCN(c2cc(C(=O)O)c3cc(NS(=O)(=O)c4ccccc4C)ccc3n2)CC1
952 | COc1ccccc1N1CCN(c2nnc(SC(C)C)s2)CC1
827 | CC(C)CC(=O)N1CCCC(COc2ccc(C(=O)NC(C)C)cc2)C1 (stereo not drawn)
799 | Cc1ccc2ncn(C3CCN(C(=O)Nc4ccc(C)c(C)c4)CC3)c(=O)c2c1
557 | CN(C)C[C@@H]1CN(c2ncccn2)C[C@H]1NC(=O)c1ccc2ncccc2c1
905 | CCN1CCCCc2cc(C(=O)NC(C)COC)sc21 (stereo not drawn)
627 | O=C(COc1ccc(Cl)cc1)Nc1ccc(-c2cn3c(n2)SCC3)cc1
783 | COc1ccc(-c2noc(C3CCCN3C(=O)c3ccc(C#N)cc3)n2)cc1OC (stereo not drawn)
911 | O=C(NC(c1nnc(-c2ccccc2)o1)c1ccccc1Cl)c1ccco1 (stereo not drawn)
740 | C=CCNC(=O)Cc1c(C)n(CC=C)c2nc(-c3ccccc3)nn2c1=O
786 | CC1(C)CC(=O)c2cn(-c3ccc(Cl)cc3)c(=O)c(C(=O)N3CCCC3)c2C1
705 | Cc1ccc2nc(NC(=O)CSc3nnc(CNC(=O)c4ccco4)o3)sc2c1
681 | O=C(NCC1CC1)C1CCN(C(=O)c2ncn3c2COC(c2ccccc2)C3)CC1 (stereo not drawn)
1140 | O=C(Nc1ccc(Br)cc1)C1CCCN(c2nccnc2Oc2ccccc2)C1 (stereo not drawn)
663 | CCOc1cc(C(=O)N(CC)c2nc(-c3ccccc3)cs2)cc(OCC)c1OCC
953 | CCN1C(=O)COc2cc(-c3noc(C(=O)NCCc4ccccc4)n3)ccc21
626 | O=C(CN1C(=O)C2CCCCN2c2ccc(C(=O)N3CCCC3)cc21)NCc1ccccn1 (stereo not drawn)
894 | COc1ccccc1-c1nc(C2CC(=O)N(c3ccccc3)C2)no1 (stereo not drawn)
656 | CC1Oc2ccccc2OC1C(=O)Nc1cccc(-c2cn3c(n2)SCC3)c1 (stereo not drawn)
1210 | Cc1cccc(-c2nnc(-c3cc(S(=O)(=O)N4CCCCC4)ccc3Cl)o2)c1
578 | O=C(CN1C[C@H]2C[C@H](C1)[C@H]1CCCC(=O)N1C2)NCc1cccs1
910 | CC(=O)Nc1ccc(NC(=O)C2CCCN(c3nc4ccccc4nc3C(F)(F)F)C2)cc1 (stereo not drawn)

— the METLIN SMRT retention time set (Domingo-Almenara et al. 2019)
